This note sets out measurements from ChEMBL document CHEMBL1201862, “PubChem BioAssay data set” (2004).

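Where inhibition never reached the appropriate level, the endpoint shown equals the highest concentration tested. Otherwise, values were interpolated linearly from a five-concentration, 48-hour dose response in 96-well plates. The concentration for 50% growth inhibition is given as GI50.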 Active and inactive are the calls of the source. Cut-off read from the data, not from the text of the source: active = GI50 up to about 1.1 µM and inactive = higher. Bridge positions count the residues as written; N and C are the ends. Peptide text beside a SMILES is read from it. * marks the point of attachment. Cbz = O=C(OCc1ccccc1)* Bounds are passed on as bounds.

Among the test systems are 786-0; COLO 205; DU-145; HCT-15; HOP-62; Hs-578T; K562; LOX IMVI; M14; NCI-H460; NCI/ADR-RES; OVCAR-4; OVCAR-5; OVCAR-8; RPMI-8226; SF-268; U-251; UACC-62.
Assay in all cases: NCI tumour cell line growth inhibition, 48 h

Regarding `O=C1CCC2(CC1CC(Sc1ccccc1)Sc1ccccc1)OCCO2` (configuration not stated), the GI50 in the assay on 786-0 was 45.7 µM (inactive); in the assay on COLO 205 it was 25.2 µM (inactive); in the assay with DU-145 it was 88.5 µM (inactive); in the assay with HCT-15, 37.1 µM; in the assay with HOP-62, 81.1 µM (inactive); in the assay with Hs-578T, 23.2 µM (inactive). The GI50 is 31.9 µM (inactive) in the assay on K562; 37.4 µM (inactive) with LOX IMVI; 43.9 µM (inactive) in the assay with M14; 31.8 µM (inactive) in the assay with NCI-H460; 33.4 µM (inactive) in the assay on NCI/ADR-RES; 56.1 µM (inactive) in the assay with OVCAR-4. The GI50 in the assay with OVCAR-5 was 72.4 µM (inactive); with OVCAR-8 it was 42.5 µM (inactive); in the assay on RPMI-8226, 30 µM (inactive); in the assay on SF-268, 31.2 µM (inactive); in the assay with U-251, 41.9 µM (inactive); with UACC-62, 31.2 µM (inactive).

For `CC1(C)N=C(/C(Cl)=[N+](/[O-])C(=O)c2ccc(F)cc2)C(C)(C)N1O`, the GI50 in the assay on 786-0 was 14.6 µM (inactive); in the assay on COLO 205 it was 18.5 µM (inactive); in the assay with DU-145, 29.6 µM (inactive); in the assay on HCT-15, 13.4 µM; in the assay on HOP-62, 19.6 µM (inactive); with Hs-578T it was 26.6 µM (inactive). The GI50 in the assay with K562 is 2.53 µM (inactive); with LOX IMVI, 11.7 µM (inactive); with M14, 16.1 µM (inactive); in the assay on NCI-H460 it was 31.9 µM (inactive); in the assay with NCI/ADR-RES, 36.6 µM (inactive); in the assay on OVCAR-4, 17.9 µM (inactive). For the same compound, the GI50 in the assay on OVCAR-5 is 18 µM (inactive); with OVCAR-8, 17.5 µM (inactive); in the assay on RPMI-8226, 14.2 µM (inactive); with SF-268 it was 16.9 µM (inactive); in the assay with U-251, > 10 µM (inactive); in the assay on UACC-62 it was 16.7 µM (inactive).

Regarding `CC(=O)OCC1OC(n2c(C)c(C)c(C)c(C#N)c2=S)C(OC(C)=O)C(OC(C)=O)C1OC(C)=O` (configuration not stated), the GI50 with 786-0 was 23.7 µM (inactive); in the assay with COLO 205, > 100 µM (inactive); in the assay on DU-145, > 100 µM (inactive); with HCT-15, above 100 µM; in the assay on HOP-62, 13.3 µM (inactive); with K562 it was > 100 µM (inactive). Also, the GI50 was > 100 µM (inactive) in the assay with LOX IMVI; 44 µM (inactive) in the assay on M14; > 100 µM (inactive) in the assay on NCI-H460; > 100 µM (inactive) in the assay with NCI/ADR-RES; > 100 µM (inactive) with OVCAR-4; > 100 µM (inactive) in the assay with OVCAR-5. The GI50 with OVCAR-8 was > 100 µM (inactive); with SF-268, 95.5 µM (inactive); with U-251 it was 27.6 µM (inactive); with UACC-62 it was > 100 µM (inactive).

As for `CN(C)C(=O)c1nnsc1NN=O`, the GI50 with 786-0 is > 100 µM (inactive); in the assay with COLO 205, > 100 µM (inactive); with DU-145, > 100 µM (inactive); with HCT-15, above 100 µM; in the assay on HOP-62, > 100 µM (inactive); in the assay on Hs-578T, > 100 µM (inactive). For the same compound, the GI50 in the assay on K562, in the assay on LOX IMVI, in the assay with M14, in the assay on NCI-H460, in the assay on NCI/ADR-RES and in the assay on OVCAR-4 was > 100 µM (inactive) each time. In addition, the GI50 in the assay with OVCAR-5, in the assay on OVCAR-8, with RPMI-8226, with SF-268, in the assay on U-251 and with UACC-62 was > 100 µM (inactive) in each case.

Consider `CCOC(=O)c1c(-c2ccc(O)c(OC)c2)c(C#N)c(=S)n(C2OC(CO)C(O)C(O)C2O)c1-c1ccccc1` (configuration not stated), for which the GI50 with 786-0 is > 100 µM (inactive); in the assay with COLO 205 it was > 100 µM (inactive); in the assay with DU-145, > 100 µM (inactive); in the assay on HCT-15 it was above 100 µM; in the assay with HOP-62, > 100 µM (inactive); with Hs-578T, > 100 µM (inactive). Moreover, the GI50 in the assay on K562, in the assay with LOX IMVI, in the assay with M14, in the assay with NCI-H460, in the assay with NCI/ADR-RES and with OVCAR-4 was > 100 µM (inactive) in each case. In addition, the GI50 in the assay on OVCAR-5 is > 100 µM (inactive); with OVCAR-8 it was > 100 µM (inactive); with RPMI-8226 it was 72.3 µM (inactive); with SF-268, > 100 µM (inactive); in the assay on U-251, > 100 µM (inactive); in the assay on UACC-62 it was > 100 µM (inactive).

For `CNC(=O)C1CCCCNC(=O)CCC(NC(=O)OCc2ccccc2)C(=O)N1` (stereo not drawn) (Cbz-Glu-Lys-NHMe; lactam 1-2; configuration not given here), the GI50 is > 100 µM (inactive) in the assay on 786-0; > 100 µM (inactive) in the assay with COLO 205; > 100 µM (inactive) with DU-145; above 100 µM with HCT-15; > 100 µM (inactive) in the assay with HOP-62; > 100 µM (inactive) in the assay on Hs-578T. In addition, the GI50 with K562, in the assay on LOX IMVI, in the assay on M14, in the assay on NCI-H460, in the assay on NCI/ADR-RES and in the assay on OVCAR-4 was > 100 µM (inactive) throughout. Besides, the GI50 with OVCAR-5, in the assay with OVCAR-8, with RPMI-8226, in the assay with SF-268, with U-251 and with UACC-62 was > 100 µM (inactive) in each case.

On to `CC(=O)c1c2c(cc3c1CC1(C3)Cc3cc4c(c(C(C)=O)c3C1)CCCC4)CCCC2`, for which the GI50 was 45.6 µM (inactive) in the assay on 786-0; > 100 µM (inactive) in the assay on COLO 205; 51.5 µM in the assay with HCT-15; > 100 µM (inactive) with HOP-62; > 100 µM (inactive) in the assay on Hs-578T; 20.1 µM (inactive) in the assay on K562. Moreover, the GI50 in the assay with LOX IMVI was > 100 µM (inactive); in the assay with M14 it was > 100 µM (inactive); with NCI/ADR-RES it was > 100 µM (inactive); with OVCAR-4, 53.2 µM (inactive); in the assay on OVCAR-5, > 100 µM (inactive); in the assay with OVCAR-8 it was > 100 µM (inactive). In addition, the GI50 in the assay on RPMI-8226 was 21.3 µM (inactive); in the assay on U-251, > 100 µM (inactive); with UACC-62 it was > 100 µM (inactive).

With `O=C(O)c1ccccc1/C=C1/Nc2ccccc2C1=O`, the GI50 was > 100 µM (inactive) in the assay on 786-0; > 100 µM (inactive) with COLO 205; > 100 µM (inactive) with DU-145; 41.5 µM in the assay with HCT-15; > 100 µM (inactive) with HOP-62; 62.5 µM (inactive) with Hs-578T. The GI50 was > 100 µM (inactive) in the assay on K562; 75.9 µM (inactive) in the assay with LOX IMVI; > 100 µM (inactive) in the assay on M14; 32.9 µM (inactive) in the assay on NCI-H460; > 100 µM (inactive) in the assay with NCI/ADR-RES; 63.4 µM (inactive) with OVCAR-4. In addition, the GI50 in the assay with OVCAR-5 was > 100 µM (inactive); in the assay with OVCAR-8 it was > 100 µM (inactive); with RPMI-8226, > 100 µM (inactive); in the assay on SF-268 it was 93.1 µM (inactive); with U-251 it was > 100 µM (inactive); in the assay with UACC-62, > 100 µM (inactive).

For the compound `CCN(CCCl)c1cccc(NC(=O)c2ccc(C(=O)Nc3cccc(CN(C)C)c3)cc2)c1`, the GI50 in the assay on 786-0 is 0.0239 µM (active); in the assay with COLO 205 it was 0.11 µM (active); with DU-145 it was 0.0432 µM (active); in the assay with HCT-15 it was 0.605 µM; in the assay with HOP-62 it was 0.0641 µM (active); in the assay on Hs-578T, 0.0618 µM (active). Also, the GI50 is 0.0422 µM (active) in the assay with K562; 0.0277 µM (active) with LOX IMVI; 0.204 µM (active) in the assay with M14; 0.0537 µM (active) with NCI-H460; 2.76 µM (inactive) in the assay with NCI/ADR-RES; 0.0344 µM (active) with OVCAR-4. For the same compound, the GI50 in the assay with OVCAR-5 is 1.48 µM (inactive); in the assay on OVCAR-8, 0.183 µM (active); in the assay with RPMI-8226, 0.267 µM (active); in the assay on SF-268, 0.0379 µM (active); in the assay on U-251, 0.0349 µM (active); in the assay on UACC-62 it was 0.0785 µM (active).

As for `Clc1cccc(-c2sc(-c3ccsc3)cc2Cc2ccsc2)c1`, the GI50 in the assay with 786-0 was > 10 µM (inactive); with COLO 205, > 10 µM (inactive); in the assay with DU-145, > 10 µM (inactive); with HCT-15, above 10 µM; with HOP-62, > 10 µM (inactive); with K562, > 10 µM (inactive). Besides, the GI50 in the assay on LOX IMVI, in the assay with M14, in the assay with OVCAR-4, with OVCAR-8, in the assay on RPMI-8226 and with SF-268 was > 10 µM (inactive) each time. Moreover, in the assay on UACC-62, the GI50 was > 10 µM (inactive).

As to `O=C1CC(c2cccc(Br)c2)n2cccc21` (configuration not stated), the GI50 in the assay on 786-0 is > 100 µM (inactive); with COLO 205 it was > 100 µM (inactive); in the assay with DU-145, > 100 µM (inactive); in the assay on HCT-15, 92.9 µM; in the assay on HOP-62 it was > 100 µM (inactive); in the assay with Hs-578T it was 28.2 µM (inactive). The GI50 is 72.3 µM (inactive) with K562; > 100 µM (inactive) with LOX IMVI; 80.7 µM (inactive) with M14; > 100 µM (inactive) in the assay on NCI/ADR-RES; 88.9 µM (inactive) in the assay on OVCAR-4; > 100 µM (inactive) in the assay with OVCAR-5. Further, the GI50 with OVCAR-8 is > 100 µM (inactive); in the assay with RPMI-8226, > 100 µM (inactive); in the assay on SF-268, 67.8 µM (inactive); in the assay with U-251 it was > 100 µM (inactive); in the assay with UACC-62 it was > 100 µM (inactive).

On to `Cc1nc(=O)[nH]c2c1C(=O)N(C(C)C)C(NC(C)C)S2` (configuration not stated), for which the GI50 in the assay on 786-0 was > 100 µM (inactive); in the assay with COLO 205 it was > 100 µM (inactive); in the assay on DU-145, > 100 µM (inactive); in the assay with HCT-15 it was 93.8 µM; with HOP-62, > 100 µM (inactive); in the assay with K562 it was > 100 µM (inactive). The GI50 in the assay with LOX IMVI was 83.6 µM (inactive); in the assay on M14, > 100 µM (inactive); with NCI/ADR-RES it was > 100 µM (inactive); in the assay on OVCAR-4, 57.9 µM (inactive); with OVCAR-5, > 100 µM (inactive); with OVCAR-8, > 100 µM (inactive). The GI50 with RPMI-8226 is > 100 µM (inactive); with U-251, > 100 µM (inactive); in the assay on UACC-62, 76 µM (inactive).
